The term IC50 denotes the concentration that gives 50% inhibition.

Assay [1] relates to acute monophasic EAE. The experiment in a line: Acute monophasic EAE, drug administration beginning with immunization. Type of assay: in vivo, C57/BL6 mice. As to conditions: for Day of Onset / Incidence / Mean Clinical Score: 30 day observation; for Max. Clinical Score: scale 0 to 5. The text has this: (§1) An acute monophasic form of EAE, induced by the administration of MOG, mimics the progressive clinical patterns of MS seen in human patients and can provide an opportunity to investigate a therapy's ability to prevent progression to symptomatic disease, to prevent or reduce the disability that would otherwise be caused by disease progression, or to treat one or more clinical symptoms of MS. The induction of the acute monophasic form of EAE in C57/BL6 mice can be achieved as described in Gaupp et al., Am J Pathol. 162(1): 139-150 (2003). Similarly, a relapsing-remitting form of EAE, induced by the administration of PLP, mimics the more common relapsing-remitting form of MS seen in humans and can provide an opportunity to investigate potential therapies to reduce the frequency, severity, or duration of a disease relapse, to otherwise prevent disability caused by disease progression, or to relieve one or more clinical symptoms of MS in human patients. The induction of the relapsing-remitting form of EAE in SJL/J mice can be achieved as described in Fridkis-Hareli et al., J Clin Invest. 109(12): 1635-1643 (2002).
(§2) Acute monophasic EAE was induced in C57/BL6 mice by subcutaneous flank and tail base injections of 200 μg of MOG in complete Freund's adjuvent containing 500 μg of heat-inactivated mycobacterium tuberculosis on day 0, supplemented by intravenous injections of 200 ng of pertussis toxin on day 2.
With reference first to FIGS. 1-3, beginning on the day of immunization for acute monophasic EAE, nine groups of mice (each group containing 5 or 6 individuals) were treated with either ethonafide (AMP; a compound of Formula (II) wherein the dibenzisoquinoline ring structure is substituted at position 6 with —OCH2CH3) or mitoxantrone at a dose of 0.125 mg/kg, 0.25 mg/kg, or 0.5 mg/kg daily for seven days, or were left untreated to be used as a control at each respective dose level. Each drug was administered intraperitoneally in phosphate buffered saline (untreated mice received i.p. administrations of the PBS vehicle). The mice were observed daily for clinical signs of disease, and were scored (by multiple investigators) on an arbitrary scale from 0 to 5 in increments of 0.5 according to the following parameters: 0—no clinical signs of disease; 1—flaccid tail; 2—hind limb weakness or abnormal gait; 3—complete hind paralysis; 4—complete hind paralysis with forelimb weakness or paralysis; and 5-moribund or deceased. The incidence of disease in the immunized mice, the day of disease onset, the maximum clinical score, and the mean clinical score over a 30 day observation period were determined, and the results are shown in Table 2.

Assay [2] deals with acute monophasic EAE. Put plainly: Acute monophasic EAE, drug administration beginning on day 11 post immunization. In kind it is in vivo, C57/BL6 mice. As to conditions: for Mean Clinical Score / Day of Onset / Incidence: 32 day observation; for Mean Clinical Score: mice that had evidence of disease; for Max. Clinical Score: scale 0 to 5.
Source text: as §1, §2
With reference now to FIG. 4, five groups of mice (each group containing 5 or 6 individuals), immunized for acute monophasic EAE as described hereinbefore, were treated with either ethonafide (AMP) or mitoxantrone at a dose of 0.5 mg/kg or 1.0 mg/kg beginning on day 11 following immunization, for seven days, or were left untreated to be used as a control. Each drug was administered intraperitoneally in phosphate buffered saline (untreated mice received i.p. administrations of the PBS vehicle). The mice were observed daily for clinical signs of disease and were scored as indicated hereinbefore on a clinical scale from 0 to 5. The incidence of disease in the immunized mice, the day of disease onset, the maximum clinical score, and the mean clinical score over a 32 day observation period were determined, and the results are shown in Table 3.

The test system of assay [3] is L1210 sensitive. Particulars: murine leukemia L1210 sensitive to standard cytotoxic agents; MTT, continuous exposure; cited from earlier work.
Assay [4] deals with L1210 resistant. Particulars: murine leukemia L1210 resistant, P-glycoprotein producing; MTT, continuous exposure; cited from earlier work.
For assay [5], the system named is neonatal rat myocytes. Particulars: 1 hour drug concentration that reduces ATP/protein ratio to 50% of untreated control myocytes; read-out: IC50 Cardiotox; cited from earlier work.
Setting [6] is: 0.125 mg/kg i.p. daily for seven days from day of immunization.
Setting [7] is: 0.125 mg/kg i.p. daily for seven days from day of immunization, mice that had evidence of disease.
The mark [8] stands for this setting: 0.25 mg/kg i.p. daily for seven days from day of immunization.
Where [9] appears, read: 0.25 mg/kg i.p. daily for seven days from day of immunization, mice that had evidence of disease.
[10] abbreviates: 0.5 mg/kg i.p. daily for seven days from day of immunization.
The mark [11] stands for this setting: 0.5 mg/kg i.p. for seven days beginning on day 11.
Where [12] appears, read: 0.5 mg/kg i.p. for seven days beginning on day 11 following immunization.
The mark [13] stands for this setting: 1.0 mg/kg i.p. for seven days beginning on day 11.
[14] abbreviates: 1.0 mg/kg i.p. for seven days beginning on day 11 following immunization.

Take `O=C1c2c(O)ccc(O)c2C(=O)c2c(NCCNCCO)ccc(NCCNCCO)c21` [Mitoxantrone, reference compound]: the “Day of Onset” value in assay [1] (setting [6]) stood at 12.5 ± 0.67; in assay [2] (setting [12]), 12.2 ± 0.68; in assay [2] (setting [14]) it was 13.3 ± 0.55. In addition, the Incidence stood at 100% in assay [1] (setting [6]); 40% in assay [1] (setting [8]); 0% in assay [1] (setting [10]); 100% in assay [2] (setting [12]); 60% in assay [2] (setting [14]). In addition, the “Mean Clinical Score” value in assay [1] (setting [7]) was determined as 1.63 ± 0.59; in assay [1] (setting [9]), 0.21 ± 0.07; in assay [1] (setting [10]) it was 0; in assay [2] (setting [11]), 0.59 ± 1.67; in assay [2] (setting [13]) it was 0.51 ± 0.21. Also, the “Max. Clinical Score” value in assay [1] (setting [6]) was 3.1 ± 0.33; in assay [1] (setting [10]), 0; in assay [2] (setting [12]), 2.4 ± 0.36; in assay [2] (setting [14]), 2.8 ± 0.36. Also, the half-maximal inhibitory concentration (IC50) is 10 nM in assay [3], 39 nM in assay [4] and 7740 nM in assay [5].

Turning to `CCOc1ccc2c3c(c4ccccc4cc13)C(=O)N(CCN(C)C)C2=O` [*6-OC2H5], the “Day of Onset” value was found to be 11.5 ± 0.88 in assay [1] (setting [6]), 17.8 ± 3.4 in assay [1] (setting [8]), 11.8 ± 0.72 in assay [2] (setting [12]) and 12.3 ± 0.55 in assay [2] (setting [14]). Moreover, the Incidence in assay [1] (setting [6]) is 100%; in assay [1] (setting [8]), 100%; in assay [1] (setting [10]), 0%; in assay [2] (setting [12]), 100%; in assay [2] (setting [14]), 60%. In addition, the “Mean Clinical Score” value in assay [1] (setting [7]) is reported as 1.98 ± 0.48; in assay [1] (setting [9]), 0.88 ± 0.38; in assay [1] (setting [10]), 0; in assay [2] (setting [11]), 1.86 ± 0.35; in assay [2] (setting [13]), 1.17 ± 0.24. The “Max. Clinical Score” value in assay [1] (setting [6]) came out at 3.5 ± 0.22; in assay [1] (setting [8]) it was 1.8 ± 1.16; in assay [1] (setting [10]), 0; in assay [2] (setting [12]) it was 3.9 ± 0.26; in assay [2] (setting [14]), 3.7 ± 0.22. In assay [1] (0.125, 0.25, 0.5 mg/kg from day of immunization, FIGS. 1-3, Table 2), the “effect in delaying or preventing the onset of clinically symptomatic progressive disease and the disability caused thereby” value is on record as “dose dependent effect”. In addition, in assay [2] (0.5 and 1.0 mg/kg beginning on day 11, FIG. 4, Table 3), the “effect in the treatment of clinical symptoms induced in the EAE mouse model” value is “dose dependent effect”. The 50% inhibitory concentration (IC50) was 8 nM in assay [3], 7 nM in assay [4] and 1780 nM in assay [5].

These data come from patent US20070213354A1, “Compositions and Methods for the Treatment of Multiple Sclerosis” (AmpliMed Corporation, priority 2006, published 2007).
